# Experimental data published in US4229461A, “Fungicidal 6-(3,5-dichlorophenyl)perhydroimidazo[5,1-b]thiazole derivatives” (Mitsubishi Chemical Industries Limited, priority 1978, dated 1980).
# Legend:
# Botrytis cinerea = test: Preventive test against Cucumber Gray Mold disease; format: in vivo; settings: 96 h, 4 days after inoculation, 23° C.
# Experimental: Cucumber plants (cultivar: Satsukimidori), were each grown in a 15 cm.phi. plastic pot to the first leaf stage. The plants were sprayed with 10 ml/l pot of aqueous diluted suspensions of various types of wettable powders (including the wettable powder containing, as its active ingredient, compound No. 1 obtained in the Preparation Example 1, wettable powders, containing as active ingredients compounds Nos. 2-10 obtained in a manner similar to Preparation Example 1, and a wettable powder for a comparison chemical containing, as its active ingredient, tetrachloroisophthalonitrile obtained in manner similar to Preparation Example 1). After air-drying for 5 hours, the plants were inoculated with the mecelia of Botrytis cinerea inoculated with shaking in Yeast-Glucose liquid medium.
# The cucumbers were kept in the humidic chamber at 23° C. for 4 days after inoculation and then checked with respect to their disease index. The checking was conducted as follows: The leaves were checked to determine the extent of lesion area and classified into six groups as indicated by indices 0, 1, 2, 3, 4, 5 based on the extent of the lesions and on the numbers of leaves n0, n1, n2, n3, n4, and n5 which corresponded to the indices, respectively, were also determined to calculate the disease index from the following equation.
# 1 lesion area of 1/5 times the total leaf area
# 2 lesion area of 2/5 times the total leaf area
# 3 lesion area of 3/5 times the total leaf area
# 4 lesion area of 4/5 times the total leaf area
# 5 lesion area above 4/5 times the total leaf area
# (where n is the total number of checked leaves)
# The preventive value was calculated from the following equation. [formula]
# Cochliobolus miyabeans = test: Preventive test against Rice brown spot disease; format: in vivo, Cochliobolus miyabeans on rice plants (cultivar: Kinmaze); settings: Oryza sativa, 48 h, read-out: Preventive Value
# Experimental: Rice plants (cultivar: Kinmaze) were each grown in a 10 cm.phi. porcelain pot to the 3-4 leaves stage. The plants were sprayed with 10 ml/l pot of aqueous diluted suspensions of various types of wettable powders of the chemicals of the invention and comparison chemical [bis(dimethyl thiocarbamoyl)disulfide). The wettable powders were prepared in a manner similar to test example 1.
# After air drying for 5 hours, the plants were inoculated with a spore suspension of Cochliobolus miyabeans incubated with a chaffy medium at 25° C. for 5 days.
# These plants were kept in the humidic chamber at 27° C. for 48 hours after inoculation and the number of lesions were counted and preventive value was calculated according to the following equation. [formula]
# Sclerotinia sclerotiorum [1] = test: Preventive test against kidney bean stem rot; format: in vivo; settings: 4 days, 25° C.
# Experimental: Kidney bean plants (cultivar: Kintoki) were each grown in a 15 cm.phi. plastic pot to the trifoliate stage. The plants were sprayed with 10 ml/l pot of an aqueous diluted suspension of wettable powders of the chemicals of the invention and comparison chemical.
# The wettable powders were prepared in a manner similar to example 1. After air drying for 5 hours, the plants were inoculated with mecelia of Sclerotinia sclerotiorum incubated with shaking in a Yeast-Glucose liquid medium, and kept in a humidic chamber at 25° C. for 4 days. Then the preventive value was calculated according to the equation given in test example 1.
# [2] = system: Botrytis cinerea (strain I); test: Antifungal Test (PDA medium), Botrytis cinerea (strain I); format: cell-based; settings: 96 h, 25° C., 4 days, read-out: MIC Concentration
# Experimental: (§1) Each chemical was mixed with PDA medium in an amount enough to obtain the pre-determined concentration level and solidified in 9 cm.phi. Petri dish. Then, various plant disease fungi were inoculated on the middle of the mixed agar plate and cultured at 25° C. for 4 days.
# (§2) The minimum inhibition concentration (MIC) means that at which the development of the inoculated fungus was not recognized with the naked eye.
# [3] = system: Botrytis cinerea (strain II); test: Antifungal Test (PDA medium), Botrytis cinerea (strain II); format: cell-based; settings: 96 h, resistant to benzoimidazole type fungicide, 25° C., 4 days, read-out: MIC Concentration
# Experimental: as §1, §2
# *Botrytis cinerea (strain II) is the strain resistant to
# benzoimidazoletype fungicide e.g. Benlate, TopsinM.
# Sclerotinia sclerotiorum [4] = test: Antifungal Test (PDA medium), Sclerotinia sclerotiorum; format: cell-based; settings: 96 h, 25° C., 4 days, read-out: MIC Concentration
# Experimental: as §1, §2
# Altrenaria mali = test: Antifungal Test (PDA medium), Altrenaria mali; format: cell-based; settings: 96 h, 25° C., 4 days, read-out: MIC Concentration
# Experimental: as §1, §2
# Altrenaria Kikuchiana = test: Antifungal Test (PDA medium), Altrenaria Kikuchiana; format: cell-based; settings: 96 h, 25° C., 4 days, read-out: MIC Concentration
# Experimental: as §1, §2
# Botrytis allii = test: Antifungal Test (PDA medium), Botrytis allii; format: cell-based; settings: 96 h, 25° C., 4 days, read-out: MIC Concentration
# Experimental: as §1, §2
compound,measurement,setting,value
"CC12C(=O)N(c3cc(Cl)cc(Cl)c3)C(=O)N1CCS2(=O)=O (stereo not drawn) [Compound No. 6, 7a-methyl-6-(3,5-dichlorophenyl)perhydroimidazo[5,1-b]thiazole-5,7-dion-1,1-dioxide]",pest or weed control at 500 ppm,Botrytis cinerea,90%
same,pest or weed control at 500 ppm,Cochliobolus miyabeans,90.6%
"O=C1C2SCCN2C(=O)N1c1cc(Cl)cc(Cl)c1 (stereo not drawn) [Compound No. 1, 6-(3,5-dichlorophenyl)perhydroimidazo[5,1-b]thiazole-5,7-dion]",pest or weed control at 62.5 ppm,Botrytis cinerea,100%
same,pest or weed control at 125 ppm,Botrytis cinerea,100%
same,pest or weed control at 250 ppm,Botrytis cinerea,100%
same,pest or weed control at 500 ppm,Botrytis cinerea,100%
same,pest or weed control at 500 ppm,Cochliobolus miyabeans,95.1%
same,Preventive Value,Sclerotinia sclerotiorum [1]; 50 ppm,95.3%
same,Preventive Value,Sclerotinia sclerotiorum [1]; 100 ppm,98.2%
same,Preventive Value,Sclerotinia sclerotiorum [1]; 200 ppm,100%
same,MIC,[2],3.1 µg/mL
same,MIC,[3],3.1 µg/mL
same,MIC,Sclerotinia sclerotiorum [4],1.6 µg/mL
same,MIC,Altrenaria mali,3.1 µg/mL
same,MIC,Altrenaria Kikuchiana,3.1 µg/mL
same,MIC,Botrytis allii,6.2 µg/mL
"CC12SCCN1C(=S)N(c1cc(Cl)cc(Cl)c1)C2=O (stereo not drawn) [Compound No. 4, 7a-methyl-6-(3,5-dichlorophenyl)perhydroimidazo[5,1-b]thiazole-5-thion-7-on]",pest or weed control at 500 ppm,Botrytis cinerea,93%
same,pest or weed control at 500 ppm,Cochliobolus miyabeans,85.7%
"Nc1c(Cl)cc([N+](=O)[O-])cc1Cl [2,6dichloro-4-nitroaniline, reference compound]",Preventive Value,Sclerotinia sclerotiorum [1]; 500 ppm,70.5%
"O=C1C2SCCN2C(=S)N1c1cc(Cl)cc(Cl)c1 (stereo not drawn) [Compound No. 2, 6-(3,5-dichlorophenyl)perhydroimidazo[5,1-b]thiazole-5-thion-7-on]",pest or weed control at 500 ppm,Botrytis cinerea,92%
same,pest or weed control at 500 ppm,Cochliobolus miyabeans,88.4%
same,Preventive Value,Sclerotinia sclerotiorum [1]; 50 ppm,93.8%
same,Preventive Value,Sclerotinia sclerotiorum [1]; 100 ppm,96.5%
same,Preventive Value,Sclerotinia sclerotiorum [1]; 200 ppm,100%
"CN(C)C(=S)SSC(=S)N(C)C [Bis(dimethyl thiocarbamoyl)disulfide, reference compound]",pest or weed control at 500 ppm,Cochliobolus miyabeans,83.3%
"CCCCNC(=O)n1c(NC(=O)OC)nc2ccccc21 [Benlate, reference compound]",MIC,[2],0.4 µg/mL
same,MIC,[3],> 100 µg/mL
same,MIC,Altrenaria mali,> 100 µg/mL
same,MIC,Altrenaria Kikuchiana,> 100 µg/mL
"CCC12SCCN1C(=O)N(c1cc(Cl)cc(Cl)c1)C2=O (stereo not drawn) [compound 7, 7a-ethyl-6-(3,5-dichlorophenyl)perhydroimidazo[5,1-b]thiazole-5,7-dion]",pest or weed control at 500 ppm,Botrytis cinerea,100%
same,pest or weed control at 500 ppm,Cochliobolus miyabeans,90.8%
"O=C1C2N(CCS2(=O)=O)C(=O)N1c1cc(Cl)cc(Cl)c1 (stereo not drawn) [Compound No. 5, 6-(3,5-dichlorophenyl)perhydroimidazo[5,1-b]thiazole-5,7-dion-1,1-dioxide]",pest or weed control at 500 ppm,Botrytis cinerea,91%
same,pest or weed control at 500 ppm,Cochliobolus miyabeans,89.6%
"N#Cc1c(Cl)c(Cl)c(Cl)c(C#N)c1Cl [Tetrachloro isophthalonitrile, reference compound]",pest or weed control at 500 ppm,Botrytis cinerea,65%
"CC12SCCN1C(=O)N(c1cc(Cl)cc(Cl)c1)C2=O (stereo not drawn) [Compound No. 3, 7a-methyl-6-(3,5-dichlorophenyl)perhydroimidazo[5,1-b]thiazole-5,7-dion]",pest or weed control at 62.5 ppm,Botrytis cinerea,100%
same,pest or weed control at 125 ppm,Botrytis cinerea,100%
same,pest or weed control at 250 ppm,Botrytis cinerea,100%
same,pest or weed control at 500 ppm,Botrytis cinerea,100%
same,pest or weed control at 500 ppm,Cochliobolus miyabeans,96.2%
same,MIC,[2],1.6 µg/mL
same,MIC,[3],0.8 µg/mL
same,MIC,Sclerotinia sclerotiorum [4],1.6 µg/mL
same,MIC,Altrenaria mali,3.1 µg/mL
same,MIC,Altrenaria Kikuchiana,3.1 µg/mL
same,MIC,Botrytis allii,3.1 µg/mL
"CCC12SCCN1C(=S)N(c1cc(Cl)cc(Cl)c1)C2=O (stereo not drawn) [Compound No. 9, 7a-ethyl-6-(3,5-dichlorophenyl)perhydroimidazo[5,1-b]thiazole-5-thion-7-on]",pest or weed control at 500 ppm,Botrytis cinerea,96%
same,pest or weed control at 500 ppm,Cochliobolus miyabeans,82.9%
"CCCC12SCCN1C(=S)N(c1cc(Cl)cc(Cl)c1)C2=O (stereo not drawn) [Compound No. 10, 7a-n-propyl-6-(3,5-dichlorophenyl)perhydroimidazo[5,1-b]thiazole-5-thion-7-on]",pest or weed control at 500 ppm,Botrytis cinerea,94%
same,pest or weed control at 500 ppm,Cochliobolus miyabeans,83.2%
"CCCC12SCCN1C(=O)N(c1cc(Cl)cc(Cl)c1)C2=O (stereo not drawn) [Compound No. 8, 7a-n-propyl-6-(3,5-dichlorophenyl)perhydroimidazo[5,1-b]thiazole-5,7-dion]",pest or weed control at 500 ppm,Botrytis cinerea,97%
same,pest or weed control at 500 ppm,Cochliobolus miyabeans,85.4%
